Results reported in patent US20050080054A1, “Treating androgen decline in aging male (ADAM)-associated conditions with SARMS” (priority 2002, published 2005).
Several values for one entry are separate records, joined by “and”; a condition that tells them apart may be missing. Equal values may be shown once. Entries after “also recorded” stand apart in the source; their conditions may differ.

How the values were obtained:
Assay type in all cases: in vivo, rat
[1] = system: androgen-responsive tissues (prostate, seminal vesicles, levator ani muscle); assay: Androgenic and anabolic activity: weight of androgen-responsive tissues in intact, hemi-orchidectomized and castrated rats; conditions: for Levator Ani weight / Prostate weight / Seminal Vesicle weight: n = 5
Description: FIG. 3: Androgenic and Anabolic activity of Compound VI and Compound VII in rats. Male rats with normal testicular function (no surgical manipulation) were left untreated (Intact), treated with compound VI (0.5 mg/day), compound VII (0.5 mg/day) or testosterone proprionate (TP, 0.5 mg/day), and the weight of androgen-responsive tissues (prostate—FIG. 3A, semimal vesicles—FIG. 3B, and levator ani muscle—FIG. 3C) was determined.
(§1) FIG. 4: Androgenic and Anabolic activity of Compound VI and Compound VII in rats. Male rats received unilateral orchidectomy (Hemi-orchidectomized) and were left untreated (Intact), treated with vehicle alone (PEG 300), Compound VI (0.5 mg/day), Compound VII (0.5 mg/day), or testosterone proprionate (TP, 0.5 mg/day), and the weight of androgen-responsive tissues (prostate—FIG. 4A, semimal vesicles—FIG. 4B, and levator ani muscle—FIG. 4C) was determined.
as §1, with “5:” for “4:”, “bilateral” for “unilateral”, “(Castrated)” for “(Hemi-orchidectomized)”, “5A,” for “4A,”, “5B,” for “4B,”, “5C)” for “4C)”
(§2) Compound VI and Compound VII were synthesized and characterized in the laboratory of Dr. Duane Miller at the University of Tennessee, Memphis, Tenn. Male Sprague-Dawley rats were purchased from Harlan Biosciences (Indianapolis, Ind.). The animals were maintained on a 12-h cycle of light and dark with food and water available ad libitum. All animal studies were reviewed and approved by the Animal Care and Use Committee of The Ohio State University, and conformed to the Principles of Laboratory Animal Care (NIH publication #85-23, revised 1985). Immature male Sprague-Dawley rats weighing 187 to 214 g were randomly distributed into 9 groups of 5 animals. One day before the initiation of drug treatment, groups 4 through 6 and groups 7 through 9 received unilateral or bilateral orchidectomy, respectively, via a midline scrotal incision. […] All drugs given to animals were freshly prepared as solutions in polyethylene glycol 300 (PEG 300). Groups 4 and 7 received treatment with vehicle alone (i.e., PEG 300). Animals in groups 3, 6, and 9 received testosterone propionate (TP, 0.5 mg/day) via implantation of subdermal osmotic pumps (Model 2002, Durect Corporation, Palo Alto, Calif.). Animals in groups 2, 5, and 8 received Compound VI or Compound VII (0.5 mg/day) via implantation of subdermal osmotic pumps. After 14 days of drug treatment, rats were weighed, anesthetized, and sacrificed. Blood samples were collected by venipuncture of the abdominal aorta. Plasma samples were analyzed for testosterone, FSH, LH and osteocalcin. Testosterone concentrations were measured by AniLytics Inc. (Gaithersburg, Md.). FSH and LH levels were measured by the National Hormone and Peptide Program (Dr. A F Parlow, UCLA, CA). Plasma osteocalcin levels were determined using a commercially available rat osteocalcin EIA kit from Biomedical Technologies Inc. (Stoughton, Mass.). The ventral prostates, seminal vesicles, and levator ani muscle were removed and weighed. Osmotic pumps were also removed from animals to check for correct pump operation. The weights of all organs were normalized to body weight, and analyzed for any statistically significant differences between groups using single-factor ANOVA with the alpha value set a priori at p<0.05. The weights of prostates and seminal vesicles were used as indices for evaluation of androgenic activity, and the levator ani muscle weight was used to evaluate the anabolic activity. Statistical analyses of parameters from complete blood count or serum chemical profiling, wherever applicable, were performed by single-factor ANOVA with the alpha value set a priori at p<0.05.

[2] = system: female rats after ovariectomy; assay: Bone mineral content (DEXA) in female rats after ovariectomy
Description: One hundred ten female rats were assigned to one of eleven treatment groups. Groups 1-8 were ovariectomized on day one of the study. Groups 9-11 were intact animals. Groups 1-6 received Compound VI by daily subcutaneous injection at doses of 0.1, 0.3, 0.5, 0.75, 1.0, and 3 mg/day, respectively. Groups 7 and 11 received dihydrotestosterone (DHT) at a dose of 1 mg/day. Groups 8 and 9 were ovariectomized and intact control groups, respectively. Group 10 received Compound VI at a dose of 1.0 mg/day. All animals were treated for 120 days. Bone mineral content (BMC) was determined using dual energy x-ray absorptiometry (DEXA) on days 1, 30, 60, 90, and 120.

[3] = Plasma testosterone levels in male rats of varying hormonal status; conditions: 0.5 mg/day; for Plasma testosterone levels: osmotic pump, 14 days, n = 5
Excerpt: as §2

[4] = system: myosin heavy chain (MHC) IIb mRNA; assay: Myosin heavy chain (MHC) IIb mRNA expression in masseter muscle by RT-PCR; conditions: masseter muscle of intact female rats; untreated control = 100%
Excerpt: MHC is the predominant protein in skeletal muscle encoded by a multigene family expressed in a tissue-specific and developmentally regulated manner [Adams et al 1999]. In steady state, mRNA expression usually parallels the pattern of MHC protein expression. Because transcription of MHC mRNA occurs in advance of MHC protein translation, and the increased sensitivity of RT-PCR compared to western blotting, rapid changes in mRNA expression can be detected and used to analyze the subtle dynamic effects of muscle anabolism [Wright et al 1997].
The masseter muscle dissected from untreated intact female rats was set as the control level (representing 100%) of MHC IIb expression (FIG. 7A). Intact female rats treated with androgens were evaluated against the untreated controls for the effect of treatment on MHC IIb from masseter.

[5] = Plasma LH levels in male rats of varying hormonal status; conditions: 0.5 mg/day; for Plasma LH levels: 14 days, n = 5
Excerpt: as §2

[6] = castrated rats, 0.5 mg/day, 14 days
[7] = hemi-orchidectomized animals, 0.5 mg/day
[8] = hemi-orchidectomized rats, 0.5 mg/day, 14 days
[9] = intact rats, 0.5 mg/day, 14 days

## CC(=O)Nc1ccc(OC[C@](C)(O)C(=O)Nc2ccc([N+](=O)[O-])c(C(F)(F)F)c2)cc1 [Compound VI]
[1]; castrated animals
  increasing the weight of the prostate, compared with TP: less effective than TP
[1]; [6]
  Levator Ani weight: 100.65 % of intact control
  Prostate weight: 32.55 % of intact control
  Seminal Vesicle weight: 16.47 % of intact control
[1]; from organ weights in rats
  agonist character in levator ani muscle: full agonist
  agonist character in prostate and seminal vesicles: partial agonist
[1]; hemi-orchidectomized and castrated animals
  effect on weight of the levator ani muscle: significant increases
[1]; [7]
  size of the levator ani muscle, of that observed in untreated hemi-orchidectomized animals: 108%
  size of the prostate, of that observed in untreated hemi-orchidectomized animals: 75%
  size of the seminal vesicles, of that observed in untreated hemi-orchidectomized animals: 79%
[1]; [8]
  Levator Ani weight: 108.10 % of intact control
  Prostate weight: 74.69 % of intact control
  Seminal Vesicle weight: 78.55 % of intact control
[1]; intact and hemi-orchidectomized animals
  effect on prostate weights: significant decreases in prostate weights
[1]; intact animals, 0.5 mg/day
  change in size of levator ani muscle: no statistically significant changes
  change in size/weight of the seminal vesicles: no statistically significant changes; also recorded: no effect
[1]; [9]
  Levator Ani weight: 109.15 % of intact control
  Prostate weight: 79 % of intact control and 79.41 % of intact control
  Seminal Vesicle weight: 90.54 % of intact control
[1]; male rats, 0.5 mg/day, 14 days
  adverse pharmacologic effects: No adverse pharmacologic effects were observed
[2]; FIG. 9
  whole body BMC: increased whole body BMC in a dose-dependent and time-dependent manner
[2]; FIG. 10
  effect at L2-L4 vertebra and proximal femur: protective effect
[2]; ovariectomized female rat bone model
  potency comparison Compound VI versus DHT: more potent than DHT
[2]; ovariectomized female rats, 120 days
  bone resorption: inhibited bone resorption
[2]; ovariectomized female rats, 0.1 mg/day s.c. daily, treated for 120 days (group 1)
  increase in BMC: 22.9%
[2]; ovariectomized female rats, 0.3 mg/day s.c. daily, treated for 120 days (group 2)
  increase in BMC: 26.0%
[2]; ovariectomized female rats, 0.5 mg/day s.c. daily, treated for 120 days (group 3)
  increase in BMC: 28.5%
[2]; ovariectomized female rats, 0.75 mg/day s.c. daily, treated for 120 days (group 4)
  increase in BMC: 30.5%
[2]; ovariectomized female rats, 1.0 mg/day, treated for 120 days (group 5; DHT 1 mg/day)
  increase in BMC: 30.0%
[2]; ovariectomized female rats, 3 mg/day s.c. daily, treated for 120 days (group 6)
  increase in BMC: 40.1%
[3]; castrated male rats
  Plasma testosterone levels: 0.066 ± 0.148 ng/mL
[3]; hemi-orchidectomized male rats
  Plasma testosterone levels: 1.404 ± 0.810 ng/mL
[3]; intact male rats
  Plasma testosterone levels: 1.830 ± 0.510 ng/mL
[3]; intact, hemi-orchidectomized or castrated male rats
  effect on testosterone levels: did not affect testosterone levels
[4]
  MHC type IIb transcription, of untreated control: 137%
[5]; TP statement for castrated male rats
  effect on plasma LH levels: no effect
[5]; castrated male rats
  Plasma LH levels: 8.644 ± 2.799 ng/mL
[5]; hemi-orchidectomized male rats
  Plasma LH levels: 0.124 ± 0.115 ng/mL
[5]; intact male rats
  Plasma LH levels: 0.026 ± 0.037 ng/mL
